# Data as given in patent publication US5744492A, “Method for inhibiting angiogenesis” (United States of America, priority 1994, dated 1998).
# Columns and labels:
# Format in all cases: cell-based, human
# β-actin = assay: Northern blot, β-actin probe for quantitation of RNA load in HUVECs; settings: 24 hr
# Method: (§1) Human umbilical vein endothelial cells (H 930) were generously supplied by Dr. Tom Maciag, American Red Cross (Gaithersburg, Md., USA) and were used between passages 9 and 14 to avoid senescence. HUVECs were grown on fibronectin-coated tissue culture plastic (200 μg/150 mm dish) in complete medium (Medium 199 (M-199) containing 5 U/mL preservative-free heparin, 25.5 μg/mL ECGS, 10% fetal bovine serum and 100 U/mL penicillin, 100 μg/mL streptomycin, and 0.25 μg/mL fungizone).
# HUVECs were grown to confluence as described. Fresh complete medium with test compounds was added to confluent cells for an additional 24 hr incubation. bFGF (10 ng/mL), and/or compound 1 (10 μM) or DMSO control (0.1%) were added as indicated below. Total RNA was isolated by the guanidine isothiocyanate/CsCl method. Aliquots of RNA (7.5 μg) were separated on 1% agarose/formaldehyde gels, passively transferred to GeneScreen Plus membrane in 20X SSC, then cross-linked with ultraviolet light. Blots were prewashed for 1 hr at 42° C. in 1M NaCl, 10 mM Tris, 1 mM EDTA, 0.1% SDS and then hybridized overnight at 42° C. with a formamide-containing buffer (hybridization buffer final: 50% formamide, 4X SSC, 10 mM Tris pH 7.5, IX Denhardt solution, 0.2% SDS, 125 μg/ml salmon sperm DNA) with a random-primed 300 bp insert for MMP-2 (gift of Dr. William Stetler-Stevenson, Laboratory of Pathology, NCI). Blots were washed under stringent conditions then exposed to film. After removal of MMP-2 probe, blots were rehybridized with β-actin probe for quantitation of the RNA load. Results were quantitated by densitometric evaluation of the autoradiographs.
# Lane 1 corresponds to the mRNA from HUVECs treated with DMSO (control). Lanes 2-4 show the mRNA isolated from HUVECs treated with compound 1 (10 μM) alone, compound 1 (10 μM) and bFGF (10 ng/mL), bFGF (10 ng/mL) alone, respectively.
# HUVECs [1] = assay: HUVEC adhesion to basement membrane substrata
# Method: as §1
# Adhesion of control and compound 1-treated HUVECs to specific substrata was tested as follows. Glass slides coated with specific adhesion substrata were prepared by placement of 10 μL aliquots of 25 nM each fibronectin,laminin, gelatin or type IV collagen into triplicate wells of multichamber slides. Slides were incubated at 37° C. for 2 hours and then air-dried overnight. The following day the slides were blocked with 300 μL of blocking buffer (Tris […] pH 7.8, NaCl 111 mM, CaCl2 5 mM, and 1% BSA) for 30 min at 37° C. HUVECs were harvested with trypsin-EDTA and allowed to recover at 37° C. in complete medium for at least 1 hr. The cells were then washed free of serum and resuspended at 1×10^6 cells/mL in control medium followed by addition to the coated wells (200 μL) and incubation at 37° C. for 90 min. After incubation, the slides were washed gently three times with DPBS and the adherent cells were fixed and stained as above. Five high power fields per well in triplicate were counted to determine the number of cells attached to the different substrata. Data are expressed as percentage of control cell adhesion (x±SEM, n=3).
# HUVECs [2] = assay: HUVEC motility (modified Boyden chamber chemotaxis); settings: 18 hr preincubation
# Method: as §1
# A modified Boyden chamber system was used to determine whether compound 1 could modulate the chemotactic stimulation of endothelial cells by fibronectin, laminin, type IV collagen or thrombospondin. The particular system used has been described for tumor cell motility. See, Minniti, et al., J. Biol. Chem. 267:9000-9004 (1992). Modifications were made as to cell number, membrane pore size, and time of incubation were tested to determine optimal conditions for the HUVECs.
# HUVECs were pretreated as described above for adhesion and resuspended at 2×10^6 cells/mL in M-199 containing 0.1% bovine serum albumin. Cells were seeded in the upper compartment of the chamber separated from the lower compartment by a gelatin-coated Nucleopore filter with 8μ pores. Laminin (100 μg/mL), fibronectin (30 μg/mL), type IV collagen (100 μg/mL) or thrombospondin (20 μg/mL) were diluted from stock solutions into control medium (M-199 plus 0.1% BSA) and were used as chemoattractants in the lower chamber. HUVECs were incubated with DMSO control (0.1%) or compound 1 (0.1-10 μM) for 18 hr prior to the motility assay. Compound 1 and DMSO were maintained with the cells throughout the experiment. Assays were incubated at 37° C. for 2 hours after which the filters were removed, fixed, and stained. Cell migration was quantited by counting five high power fields in triplicate pellets of migrated cells. Results are expressed as percentage of control cell migration (x±SEM, n=3).
smiles,measurement,setting,value
"NC(=O)c1nnn(Cc2cc(Cl)c(C(=O)c3ccc(Cl)cc3)c(Cl)c2)c1N [Compound 1, 5-amino-1-(4-(4-chlorobenzoyl)-3,5-dichlorobenzyl)1,2,3-triazole-4-carboxamide]",β-actin (densitometer),"β-actin; Control + Compound 1, 10 μM",127 Densitometer units
same,β-actin (densitometer),β-actin; bFGF 10 ng/mL + Compound 1 10 μM,210 Densitometer units
same,inhibition of HUVEC adhesion to all substrata tested (in words),"HUVECs [1]; 0-10 μM, 18 hr pretreatment",inhibited in a dose-dependent fashion
same,inhibition of HUVEC adhesion to collagen type IV (in words),"HUVECs [1]; 1.0 μM, 18 hr pretreatment, P2<0.027",statistically significant
same,inhibition of HUVEC adhesion to laminin (in words),"HUVECs [1]; 1.0 μM, 18 hr pretreatment, P2<0.04",statistically significant
same,inhibition of HUVEC adhesion to fibronectin (in words),"HUVECs [1]; 1.0 μM, 18 hr pretreatment, P2<0.043",statistically significant
same,inhibition of HUVEC adhesion to laminin (in words),"HUVECs [1]; 10.0 μM, 18 hr pretreatment, p2<0.004",statistically significant
same,inhibition of HUVEC adhesion to fibronectin (in words),"HUVECs [1]; 10.0 μM, 18 hr pretreatment, p2<0.011",statistically significant
same,inhibition of HUVEC adhesion to collagen type IV (in words),"HUVECs [1]; 10.0 μM, 18 hr pretreatment, p2<0.025",statistically significant
same,inhibition of HUVEC adhesion to gelatin (in words),HUVECs [1]; preincubation of HUVECs with compound,did not significantly inhibit adhesion
same,inhibition of HUVEC motility towards type IV collagen (in words),"HUVECs [2]; 1 μM, P2, 0.018",statistically significant dose-dependent inhibition
same,inhibition of HUVEC motility towards laminin (in words),"HUVECs [2]; 1 μM, P2<0.009",statistically significant dose-dependent inhibition
same,"inhibition of HUVEC motility towards all attractants (fibronectin, laminin, type IV collagen and thrombospondin) (in words)","HUVECs [2]; 10 μM, p2<0.001",statistically significant dose-dependent inhibition
